Experimental data from ChEMBL document CHEMBL4818984, “Kojic acid-natural product conjugates as mushroom tyrosinase inhibitors” (Eur J Med Chem, 2020).
Blank lines part the entries; values can stand above or below the molecule they belong to. Active and inactive are the calls of the source. No cut-off for these calls is given here.

Legend:
[1] = Antioxidant activity assessed as DPPH radical scavenging activity at 10 uM; format: functional
Tyrosinase [2] = molecular target: T1, Tyrosinase (Agaricus bisporus, UniProt O42713); experiment: Inhibition of mushroom tyrosinase assessed as reduction in dopachrome formation using L-DOPA as substrate by ELISA
T1 sequence (O42713 whole entry): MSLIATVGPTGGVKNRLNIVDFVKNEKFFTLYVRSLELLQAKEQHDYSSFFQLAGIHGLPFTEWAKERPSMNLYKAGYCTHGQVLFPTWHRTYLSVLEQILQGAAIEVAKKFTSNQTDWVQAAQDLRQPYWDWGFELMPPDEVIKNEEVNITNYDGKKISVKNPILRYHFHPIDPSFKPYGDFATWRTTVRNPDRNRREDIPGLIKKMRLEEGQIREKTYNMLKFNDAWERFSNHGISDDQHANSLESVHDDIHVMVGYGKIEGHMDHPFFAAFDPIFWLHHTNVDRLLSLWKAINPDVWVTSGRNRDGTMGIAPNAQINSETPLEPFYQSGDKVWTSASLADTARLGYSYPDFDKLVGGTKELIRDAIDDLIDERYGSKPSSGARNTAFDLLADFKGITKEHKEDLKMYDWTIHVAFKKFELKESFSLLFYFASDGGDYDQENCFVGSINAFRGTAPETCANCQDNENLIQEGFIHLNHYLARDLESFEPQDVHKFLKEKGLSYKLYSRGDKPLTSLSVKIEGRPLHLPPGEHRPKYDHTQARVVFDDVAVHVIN

HFF = experiment: cells; conditions: Homo sapiens
Description: Cytotoxicity against human HFF cells assessed as reduction in cell viability by MTT assay

[3] = molecular target: T2, Tyrosinase (Agaricus bisporus) (UniProt O42713); experiment: Inhibition of mushroom tyrosinase using L-DOPA as substrate at 0.5 uM in presence of 0.005 to 1.2 mM Cu2+ by ELISA
T2 sequence (whole entry): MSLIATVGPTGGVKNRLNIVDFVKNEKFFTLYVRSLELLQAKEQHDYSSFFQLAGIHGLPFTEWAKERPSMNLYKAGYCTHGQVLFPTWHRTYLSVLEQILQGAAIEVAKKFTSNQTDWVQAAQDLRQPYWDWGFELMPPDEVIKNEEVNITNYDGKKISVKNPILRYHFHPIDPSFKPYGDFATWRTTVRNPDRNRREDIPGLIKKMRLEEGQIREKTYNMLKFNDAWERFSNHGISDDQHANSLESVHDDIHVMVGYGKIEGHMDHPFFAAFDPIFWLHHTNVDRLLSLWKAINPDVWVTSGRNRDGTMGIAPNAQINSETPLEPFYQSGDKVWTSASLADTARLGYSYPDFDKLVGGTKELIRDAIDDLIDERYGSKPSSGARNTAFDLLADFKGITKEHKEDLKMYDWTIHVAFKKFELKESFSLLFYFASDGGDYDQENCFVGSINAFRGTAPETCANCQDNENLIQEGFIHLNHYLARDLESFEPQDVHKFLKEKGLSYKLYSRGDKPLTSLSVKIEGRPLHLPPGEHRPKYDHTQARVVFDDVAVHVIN

[4] = molecular target: T2, Tyrosinase (Agaricus bisporus); experiment: Non-competitive inhibition of mushroom tyrosinase using L-DOPA as substrate by Lineweaver-Burk double reciprocal plot analysis
Tyrosinase [5] = molecular target: T1, Tyrosinase; experiment: Competitive inhibition of mushroom tyrosinase using L-DOPA as substrate by Lineweaver-Burk double reciprocal plot analysis
B16-F10 [6] = experiment: cells; conditions: Mus musculus
Description: Cytotoxicity against mouse B16-F10 cells assessed as reduction in cell viability by MTT assay

[7] = molecular target: T2, Tyrosinase (Agaricus bisporus); experiment: Potency index, ratio of kojic acid IC50 to compound IC50 for inhibition of mushroom tyrosinase using L-DOPA as substrate by ELISA
B16-F10 [8] = experiment: Antimelanogenic activity against mouse B16-F10 cells assessed as reduction of melanin content at 5 uM measured after 24 hrs by microplate reader assay; format: functional, cell-based
Tyrosinase [9] = molecular target: T1, Tyrosinase; experiment: Inhibition of mushroom tyrosinase using L-tyrosine as substrate measured after 15 mins by microplate reader analysis
Tyrosinase [10] = molecular target: T1, Tyrosinase; experiment: Inhibition of mushroom tyrosinase using L-tyrosine as substrate by HPLC analysis
[11] = compound: COc1cc(C(C)=O)ccc1OCc1cn(Cc2cc(=O)c(O)co2)nn1; experiment: (§1) Mixed-type of inhibition of mushroom tyrosinase assessed as Km using L-DOPA as substrate at 0.1 uM by Lineweaver-Burk double reciprocal plot analysis (reference value: […] to […] mM); conditions: Agaricus bisporus
[12] = compound: Cc1ccc(C(C)C)cc1OCc1cn(Cc2cc(=O)c(O)co2)nn1; experiment: as §1; conditions: Agaricus bisporus
[13] = compound: O=c1cc(OCc2cn(Cc3cc(=O)c(O)co3)nn2)c2ccccc2o1; experiment: as §1; conditions: Agaricus bisporus
[14] = compound: COc1cc(C(C)=O)ccc1OCc1cn(Cc2cc(=O)c(O)co2)nn1; experiment: (§2) Mixed-type of inhibition of mushroom tyrosinase assessed as Vmax using L-DOPA as substrate at 0.025 uM measured at 475 nm by Lineweaver-Burk double reciprocal plot analysis (reference value: […] to […] deltaOD/min); conditions: Agaricus bisporus
[15] = compound: Cc1ccc(C(C)C)cc1OCc1cn(Cc2cc(=O)c(O)co2)nn1; experiment: as §2; conditions: Agaricus bisporus
[16] = compound: O=c1cc(OCc2cn(Cc3cc(=O)c(O)co3)nn2)c2ccccc2o1; experiment: as §2; conditions: Agaricus bisporus
[17] = compound: O=c1cc(OCc2cn(Cc3cc(=O)c(O)co3)nn2)c2ccccc2o1; experiment: Mixed-type of inhibition of mushroom tyrosinase assessed as Vmax using L-DOPA as substrate at 0.5 uM measured at 475 nm by Lineweaver-Burk double reciprocal plot analysis (reference value: […] deltaOD/min); conditions: Agaricus bisporus
[18] = compound: COc1cc(C(C)=O)ccc1OCc1cn(Cc2cc(=O)c(O)co2)nn1; experiment: (§3) Mixed-type of inhibition of mushroom tyrosinase assessed as Km using L-DOPA as substrate at 0.025 uM by Lineweaver-Burk double reciprocal plot analysis (reference value: […] to […] mM); conditions: Agaricus bisporus
[19] = compound: Cc1ccc(C(C)C)cc1OCc1cn(Cc2cc(=O)c(O)co2)nn1; experiment: as §3; conditions: Agaricus bisporus
[20] = compound: O=c1cc(OCc2cn(Cc3cc(=O)c(O)co3)nn2)c2ccccc2o1; experiment: as §3; conditions: Agaricus bisporus
[21] = compound: COc1cc(C(C)=O)ccc1OCc1cn(Cc2cc(=O)c(O)co2)nn1; experiment: (§4) Mixed-type of inhibition of mushroom tyrosinase assessed as Vmax using L-DOPA as substrate at 0.05 uM measured at 475 nm by Lineweaver-Burk double reciprocal plot analysis (reference value: […] to […] deltaOD/min); conditions: Agaricus bisporus
[22] = compound: Cc1ccc(C(C)C)cc1OCc1cn(Cc2cc(=O)c(O)co2)nn1; experiment: as §4; conditions: Agaricus bisporus
[23] = compound: O=c1cc(OCc2cn(Cc3cc(=O)c(O)co3)nn2)c2ccccc2o1; experiment: as §4; conditions: Agaricus bisporus
[24] = compound: COc1cc(C(C)=O)ccc1OCc1cn(Cc2cc(=O)c(O)co2)nn1; experiment: (§5) Mixed-type of inhibition of mushroom tyrosinase assessed as Km using L-DOPA as substrate at 0.05 uM by Lineweaver-Burk double reciprocal plot analysis (reference value: […] to […] mM); conditions: Agaricus bisporus
[25] = compound: Cc1ccc(C(C)C)cc1OCc1cn(Cc2cc(=O)c(O)co2)nn1; experiment: as §5; conditions: Agaricus bisporus
[26] = compound: O=c1cc(OCc2cn(Cc3cc(=O)c(O)co3)nn2)c2ccccc2o1; experiment: as §5; conditions: Agaricus bisporus
[27] = compound: COc1cc(C(C)=O)ccc1OCc1cn(Cc2cc(=O)c(O)co2)nn1; experiment: (§6) Mixed-type of inhibition of mushroom tyrosinase assessed as Vmax using L-DOPA as substrate at 0.1 uM measured at 475 nm by Lineweaver-Burk double reciprocal plot analysis (reference value: […] to […] deltaOD/min); conditions: Agaricus bisporus
[28] = compound: Cc1ccc(C(C)C)cc1OCc1cn(Cc2cc(=O)c(O)co2)nn1; experiment: as §6; conditions: Agaricus bisporus
[29] = compound: O=c1cc(OCc2cn(Cc3cc(=O)c(O)co3)nn2)c2ccccc2o1; experiment: as §6; conditions: Agaricus bisporus

Molecule: O=C(O)c1ccc(OCc2cn(Cc3cc(=O)c(O)co3)nn2)cc1
Activity [1]: inactive
IC50 (Tyrosinase [2]): 3130 nM

Molecule: O=c1cc(OCc2cn(Cc3cc(=O)c(O)co3)nn2)c2ccccc2o1
IC50 (HFF): 194000 nM
inhibition [3]: inactive
Kis [4]: 0.12 µM
Activity [1]: inactive
Ki (Tyrosinase [5]): 40 nM
IC50 (B16-F10 [6]): 143000 nM
IC50 (Tyrosinase [2]): 20 nM
Ratio IC50 [7]: > 460
Activity (B16-F10 [8]): Active

Molecule: C=CCc1ccc(O)c(OC)c1 [EUGENOL]
IC50 (Tyrosinase [9]): 923000 nM

Molecule: COc1ccc(C=O)cc1O [ISOVANILLIN]
IC50 (Tyrosinase [10]): > 500000 nM

B1: Tyrosinase (Agaricus bisporus), O42713 (protein)
chain: MSLIATVGPTGGVKNRLNIVDFVKNEKFFTLYVRSLELLQAKEQHDYSSFFQLAGIHGLPFTEWAKERPSMNLYKAGYCTHGQVLFPTWHRTYLSVLEQILQGAAIEVAKKFTSNQTDWVQAAQDLRQPYWDWGFELMPPDEVIKNEEVNITNYDGKKISVKNPILRYHFHPIDPSFKPYGDFATWRTTVRNPDRNRREDIPGLIKKMRLEEGQIREKTYNMLKFNDAWERFSNHGISDDQHANSLESVHDDIHVMVGYGKIEGHMDHPFFAAFDPIFWLHHTNVDRLLSLWKAINPDVWVTSGRNRDGTMGIAPNAQINSETPLEPFYQSGDKVWTSASLADTARLGYSYPDFDKLVGGTKELIRDAIDDLIDERYGSKPSSGARNTAFDLLADFKGITKEHKEDLKMYDWTIHVAFKKFELKESFSLLFYFASDGGDYDQENCFVGSINAFRGTAPETCANCQDNENLIQEGFIHLNHYLARDLESFEPQDVHKFLKEKGLSYKLYSRGDKPLTSLSVKIEGRPLHLPPGEHRPKYDHTQARVVFDDVAVHVIN
Km [11]: 2110 µM
Km [12]: 2020 µM
Km [13]: 2250 µM
Vmax [14]: 0.232 deltaOD/min
Vmax [15]: 0.241 deltaOD/min
Vmax [16]: 0.21 deltaOD/min
Vmax [17]: 0.021 deltaOD/min
Km [18]: 1580 µM
Km [19]: 1520 µM
Km [20]: 1710 µM
Vmax [21]: 0.208 deltaOD/min
Vmax [22]: 0.219 deltaOD/min
Vmax [23]: 0.176 deltaOD/min
Km [24]: 1920 µM
Km [25]: 1830 µM
Km [26]: 2020 µM
Vmax [27]: 0.183 deltaOD/min
Vmax [28]: 0.192 deltaOD/min
Vmax [29]: 0.122 deltaOD/min

The remaining molecules from weak to strong by IC50 (Tyrosinase [2]), led by results:

IC50 (Tyrosinase [2]): 1210 nM
Molecule: CC(=O)c1ccc(OCc2cn(Cc3cc(=O)c(O)co3)nn2)cc1
Activity [1]: inactive

IC50 (Tyrosinase [2]): 1070 nM
Molecule: C=CCc1ccc(OCc2cn(Cc3cc(=O)c(O)co3)nn2)c(OC)c1
Activity [1]: inactive

IC50 (Tyrosinase [2]): 1050 nM
Molecule: O=Cc1ccc(OCc2cn(Cc3cc(=O)c(O)co3)nn2)cc1
Activity [1]: inactive

IC50 (Tyrosinase [2]): 520 nM
Molecule: C/C=C/c1ccc(OCc2cn(Cc3cc(=O)c(O)co3)nn2)c(OC)c1
Activity [1]: inactive

IC50 (Tyrosinase [2]): 230 nM
Molecule: O=c1ccc2ccc(OCc3cn(Cc4cc(=O)c(O)co4)nn3)cc2o1
Activity [1]: inactive

Kis [4]: 0.21 µM
Ki (Tyrosinase [5]): 90 nM
IC50 (B16-F10 [6]): 408000 nM
IC50 (Tyrosinase [2]): 70 nM
Ratio IC50 [7]: 133
Molecule: Cc1ccc(C(C)C)cc1OCc1cn(Cc2cc(=O)c(O)co2)nn1
IC50 (HFF): 193000 nM
Activity [1]: inactive
Activity (B16-F10 [8]): Active
